Data set [1] relates to aged mice (22–24 months old). Description: Radial maze working memory task. In kind it is in vivo, mouse. The following applies: donepezil 0.3 mg/kg s.c.; aged mice.
Protocol: In the radial arm maze task, treatments were administered subcutaneously (s.c.) once a day 60 min prior to testing from the 2 days of habituation to the 12 days of memory testing.
The radial maze (Imetronic system, Pessac, France) was fully automated and enabled by video-tracking automatic testing and recording. Briefly, each mouse was separately assigned to six adjacent arms which were grouped into three pairs (A, B, C). These three pairs were presented repeatedly among the successive trials of each testing session. The location of the food reward varied in each pair according to an alternation rule among successive trials. Namely, among the two arms opened in a specific trial, the food was inserted in the arm which was not visited in the previous trial within the same pair. The mouse must therefore remember which of the two arms was visited in a specific trial until next presentation of the same pair, and so on in order to alternate its choice among successive presentations of any pair. At the beginning of each daily session, the mouse was placed in the central platform of the radial maze with all arms closed. One pair of arms only was opened at the beginning of each trial, and the mouse was required to visit one arm. The door of the non-chosen arm was closed as soon as the mouse reached the end of the chosen arm. The mouse was allowed to run back to the central platform of his own accord, and then, the door of the chosen arm was closed. The mouse remained in the central platform until the following trial (intertrial interval 10 s). Since three pairs were concurrently used, three specific arm visits must be kept in memory by the mouse until their utilization by using short-term working memory. After 2 days of free exploration in the maze (habituation), mice were submitted to 12 consecutive testing sessions: one session of 23 trials (3 “acquisition-only trials,” one by pair, and 20 “acquisition and test trials”) per day, i.e., a total of 276 trials (240 test trials).
Each session consisted of alternate presentations of pairs A, B, and C. The first three trials with each pair were acquisition trials (both arms rewarded). Each of the following trials was at the same time an acquisition trial (for the following trial with the same pair) and a test trial (for the arm visit made during the preceding trial with the same pair); the rewarded arm was the one that has not been visited on the preceding trial with the same pair. Memory demand varied across successive trials according to the retention interval RI (i.e., the number of intervening trials with other pairs between two successive presentations of the same pair). The retention interval for one specific arm visit (e.g., within pair A) depends on the number of concurring trials (i.e., with pairs B and C) occurring till next trial with the same pair (A). Indeed, such a variable amount of interposed trials proportionally increases the delay between acquisition and test and may also generate retroactive interference. There are five levels of retention interval: from 0, corresponding to “no interposed pair,” to 4, corresponding to a sequence of four interposed trials between n-1 and n trials.
During habituation, the time needed for visiting all six arms per session day was measured. During memory testing, memory performance was evaluated according to the percentage of correct alternation responses between successive trials with the same pair in three different manners.
The subject of data set [2] is middle-aged mice (14–15 months old). Description: Contextual serial discrimination (CSD) task. It is filed as in vivo, mouse. The following applies: for Post hoc analysis of donepezil effect on SCM score for all S 47445 levels (Dunnett, versus vehicle group): all levels of S 47445 pooled. The method, then:
(§1) Treatments were administered per os daily for nine consecutive days for studies involving the CSD and SA tasks. The 8th and the 9th oral administrations were given 60 min before acquisition and test phases in the CSD task, or before the training and the test sessions in the SA task.
The studies were carried out on mice according to the procedure described in full by Celerier et al. ([2004]) and Tronche et al. ([2010]) (Fig.1). Briefly, the mouse learns two consecutive spatial discriminations (D1 and D2) in a four hole-board apparatus (45 × 45 × 30 cm) enclosed with gray Plexiglas walls. The floor of the hole-board was interchangeable (white and rough versus black and smooth). On the floor, four holes opening on a food cup (3-cm diameter × 2.5-cm depth) were located 6 cm away from the sidewalls. Photocells located into the holes allowed an automatic recording of the number of head-dips in each hole.
Fig. 1 a Contextual serial discrimination: at the acquisition phase, mice performed two consecutive spatial discrimination sessions varying by the color and texture of the floor, i.e., D1, discrimination 1, and D2, discrimination 2. For each discrimination session, only one out of the four holes of the apparatus was baited (hashed circles). […] One hour prior to acquisition and test phases, mice received a per os administration of the compounds or vehicle solution in a chamber placed in a room (room C) different from the one in which the behavioral experiments were conducted (room A). Subsequently, mice were submitted to the test phase in which they were repositioned on the floor of the first discrimination without any food pellet in the apparatus. b Two types of responses were calculated: (i) correct responses corresponding to head-dips into the hole baited at the acquisition of the first discrimination (D1), on the same floor context; (ii) interference responses corresponding to head-dips into the hole baited at the other (second) discrimination (D2). Both parameters allow calculation of the SCM score
Mice were partially food-deprived for 1 week prior to experimentation and were maintained on a 12 ± 2% loss of their body weight throughout behavioral testing to increase motivation for food reward. During the food deprivation phase, mice were handled daily to familiarize them with the experimenter.
During the acquisition session, mice were first placed at the center of the board in a plastic tube for 15 s and then learned two successive spatial discriminations (D1 and D2) for 6 min each and were each separated by a 2-min interval. Between two sessions, each mouse was placed in its home cage in an animal housing room. For D1, ten 20-mg pellets were available only in one of the four holes in the board. For D2, ten 20-mg pellets were located in the opposite symmetrical hole. The environmental spatial cues remained at the same place for D1 and D2. Within each group, the floors used for the first and second discrimination (D1 and D2) were counterbalanced at the acquisition phase from one mouse to the other. A minimal amount of eight pellets should be eaten per mouse at either D1 or D2 during the acquisition phase.
During memory testing, D1 and D2 discriminations were performed in independent groups of mice, being replaced either on the floor of D1 or of D2. The food-deprived mice were replaced either on the floor of D1 or on the floor of D2. In each case, mice were allowed to explore the apparatus freely and performance was assessed by measuring the exploration for each hole for 6 min without any pellets in the apparatus. During the procedure, photocells allowed measurement of the number of head dips in each hole. Different parameters were further calculated: % of correct responses (head-dips into the hole previously baited on the same floor context), % of interfering responses (head-dips into the hole previously baited on the other floor context), and % of errors (head-dips into the two holes never previously baited).

For data set [3], the system named is aged mice (18–19 months old). Kind of data set: Sequential/spontaneous alternation (SA) working memory task in T-maze. It is filed as in vivo, mouse. Particulars: donepezil 0.1 mg/kg p.o. alone, ITI 90 s, n = 12. On the procedure: as §1
The spontaneous alternation (SA) task was performed in independent groups of mice as regards to the CSD and radial maze tasks. The SA task allows investigation of aged-induced working memory impairments (Vandesquille et al. [2011]). In this task, mice are submitted to a series of successive choices in a T-maze. To alternate from trial to trial, animals have to remember at each choice (except the first one) only the previous trial and to reset the interfering information from trial to trial over a series. This resetting mechanism is a main aspect of working memory (Aggleton et al. [1986]; Béracochéa and Jaffard, [1987]; Kesner [2005]).
Behavioral tests were conducted in a gray Plexiglas T-maze. Stem and arms are 35 cm long, 15 cm wide, and 10 cm high. The starting box (10 cm × 12 cm) and each goal arm are separated from the central alley by a vertical sliding door, with opening and closing monitored by a computer. Photoelectric cells allow recording of both the choice of the goal arm (left or right) and the latency (in seconds) that elapsed between the opening of the starting box and the closing of the goal box. The T-maze is located at the center of a room with various allocentric cues (white or black or striped card boards) located on the wall 1 m above the apparatus.
Animals were not food deprived, and no food reinforcement was used. Animals were first submitted to a habituation phase consisting of two free exploration sessions of 10 min each, over two consecutive days (one session per day) in the apparatus with all doors opened. At the end of the habituation phase, all animals were submitted to a training phase, involving a series of seven successive trials separated by a 30-s intertrial interval (ITI). The training phase was aimed at familiarizing the animals with the opening and closing of the doors.
For the training session, animals were submitted to a sequence of seven successive identical trials. At the beginning of a trial, mice were placed in the starting box and after a confinement period (30 s, predefined ITI), the door to the stem was opened. When the mouse entered one of the goal arms, the door was closed and the chosen arm was recorded. After a 30-s confinement period in the chosen arm, the mouse was gently returned to the starting box for a second trial, identical to the first one. To avoid olfactory cues in the apparatus, visible traces of urine were removed and the general procedure was implemented as in the training phase, except that the ITI was extended to 90 s and animals were submitted to a series of […] successive trials. […] Moreover, an 8th trial was added to the series which was separated from the 7th one by a 5-s ITI. […] The alternation score (in percentage) was used as an index of memory performance. An alternation is defined as a visit in a given arm followed by a visit into the other arm. The successive sequence of visits for the seven first trials determines the level of alternation. A percentage of alternation was calculated: number of alternations performed/number maximal of alternation. This percentage is calculated for each mouse.
For the sequential alternation task, mean and standard errors of the mean (SEM) were calculated for each group of treatment. In addition to % alternation drawn over the seven trials of the series, behavioral performances were also expressed in percentage of alternation drawn from blocks of two consecutive trials (block 1: trials 2 + 3; block 2: trials 4 + 5; block 3: trials 6 + 7). The analyses per trial blocks allowed evaluation of proactive interference over the series (Vandesquille et al. [2011], [2013]). Statistical analyses were performed using the Statview 5.0 software. […]

Data set [4] relates to mice. Kind of data set: Primary observation (Irwin) test. The following applies: donepezil alone.
Description: Male Rj: C57BL/6J mice (Elevage Janvier, 53940 Le Genest-Saint-Isle, France), 23–27 g body weight range, were stabilized for at least 5 days after delivery in macrolon cages in groups of 10 (housing period) (25 × 19 × 13 cm) and then of 4 (starting the day before the test and during the test) in macrolon cages (25 × 19 × 13 or 32 × 13 × 14 cm) on wood litter with free access to food and water.
Between one and three treated groups were compared with the same control at any one time. […] In order to keep the same conditions, all the mice receiving a single treatment also received another administration with vehicle.
Behavioral modifications, physiological and neurotoxicity symptoms, and rectal temperature were recorded according to a standardized observation grid derived from that of Irwin. The grid contains the following items: death*, convulsions*, tremor*, Straub tail*, altered activity, excitation, jumping*, abnormal gait* (rolling, tip-toe), motor incoordination*, altered muscle tone, loss of grasping, akinesia, catalepsy, loss of traction, writhing*, piloerection*, stereotypies* (sniffing, chewing, head movements), head-twitches*, scratching*, altered respiration*, aggression*, altered fear, altered reactivity to touch, ptosis, exophthalmia, loss of righting reflex, loss of corneal reflex, analgesia, defecation/diarrhea, salivation, lacrimation, and rectal temperature (hypothermia/hyperthermia).
Data set [5] has as its system aged mice (22–24 months old). Also on record: method as in Marighetto et al., [2008b]. Particulars: ref Marighetto et al., [2008b], cited from earlier work.

On to `COc1cc2c(cc1OC)C(=O)C(CC1CCN(Cc3ccccc3)CC1)C2` (centres unmarked) [Donepezil, reference compound], for which the “Performance as a function of retention interval (RI 0–4) versus chance level” value in data set [1] is “remained significantly above chance up to RI = 3”. Besides, the “Total number of explorations and % exploration of the baited hole, acquisition phase” value in data set [2] (Experiment 1 (study A and B), compounds alone, p> 0.10 in all analyses) is on record as “No significant between-groups difference”. In addition, in data set [2] (Experiment 1, S 47445 at all doses, donepezil at the active doses, versus middle-aged vehicle, data not shown), the “Memory performance in the second discrimination (D2)” value is reported as “did not alter memory performance”. Moreover, the “Total number of head-dips, test phase” value in data set [2] (Experiment 1, versus vehicles (p > 0.10 in all comparisons), data not shown) is recorded as “no significant effect”. Further, the “SCM score of the second discrimination (D2), dose effect at pooled levels of the other drug” value in data set [2] (Supplemental data 2, S 47445 0.03–0.3 mg/kg p.o. (p=0.951), Donepezil 0.03 and 0.1 mg/kg (p=0.074)) is reported as “no significant effect”. In addition, in data set [2] (donepezil 0.03 mg/kg), the “Post hoc analysis of donepezil effect on SCM score for all S 47445 levels (Dunnett, versus vehicle group)” value is recorded as “NS (p = 0.079) (NS p > 0.050)”. Also, the “Post hoc analysis of donepezil effect on SCM score for all S 47445 levels (Dunnett, versus vehicle group)” value in data set [2] (donepezil 0.1 mg/kg) is “*** (***p ≤ 0.001)”. In data set [3], the “Alternation score, 3rd block of trials (trials 6 + 7)” value is 45.833 ± 4.167 n = 12% and the “Alternation score, seven first trials of the series” value is given as “alternated significantly above vehicles”. Besides, the “Symptoms observed in the Irwin test” value in data set [4] (3 mg/kg p.o.) was “Tremor, hypothermia, and decreases in activity, abdominal muscle tone, and reactivity to touch”. In addition, the “Additional symptoms observed in the Irwin test” value in data set [4] (10 mg/kg p.o.) is “Straub tail and abnormal gait (rolling)”. For the same compound, the “Observable effects in the Irwin test” value in data set [4] (dose range 3–10 mg/kg p.o., mice) was “clear and dose-dependent sedative/myorelaxant effects”. The “Activity in radial maze working memory task” value in data set [5] (donepezil 0.3 mg/kg i.p.) is “limited to the organizational component of the task”. Besides, the “Active dose in the same working memory task” value in data set [5] (donepezil) was 0.3 mg/kg but not of 1 mg/kg was found to be active.

Source of the values: publication PMC5847048 (Psychopharmacology, 2017).
